Consider 14 compounds from article PMC8347608, “Natural Compounds Isolated from Stachybotrys chartarum Are Potent Inhibitors of Human Protein Kinase CK2” (Molecules, 2021).

The target in data set [1] is human recombinant CK2 holoenzyme (Homo sapiens, UniProt P68400). As to the kind of experiment: CE-based CK2 activity assay (substrate peptide RRRDDDSDDD). Type of data set: biochemical.
For another data set, the target named is T1, LDH-5 from rabbit muscle (Oryctolagus cuniculus, UniProt P13491).
T1 construct: LDH-5 from rabbit muscle; purchased Roche Diagnostics GmbH, Mannheim, Germany; host or cells: rabbit muscle
The experiment in a line: LDH assay (NADH absorption at 340 nm). Particulars: 10 µM compound; data not shown. Type of data set: biochemical. The source says:
A reaction of aldehyde groups appearing at position 4´and 5´ of the phenylspirodrimanes such as acetoxystachybotrydial acetate (Figure 1) with amino acids in proteins has been reported before. The ATP dependency of the IC50 value as shown above is a clear indicator that the interaction between the compound and CK2 seems to be specific and is not due to any non-specific reaction of the dialdehydes of phenylspirodrimanes with amines in a protein. Finally, to rule out this aspect, the inhibitory effect of acetoxystachybotrydial acetate on lactate dehydrogenase (LDH) was determined. Even at a concentration of 10 µM, no inhibition of LDH by acetoxystachybotrydial acetate was observed, indicating no non-specific interaction of acetoxystachybotrydial acetate by coupling to protein amines (data not shown).
For the determination of enzymatic activity of lactate dehydrogenase (LDH), 0.25 µg of LDH-5 from rabbit muscle (Roche Diagnostics GmbH, Mannheim, Germany) was incubated in phosphate buffered saline (PBS) containing 0.25 mM nicotinamide adenine dinucleotide (NADH) and 0.625 mM pyruvate in a total volume of 1 mL at room temperature. Absorption at 340 nm was monitored every 5 s within 5 min. For the determination of inhibitory activity of phenylspirodrimanes towards LDH, acetoxystachybotrydial acetate was added in a final concentration of 10 µM; 0.1% DMSO served as a control.

Data set [2] relates to MCF7 NucLight Green cells. The experiment in a line: IncuCyte live-cell imaging, cell growth (confluence). Type of data set: cell-based, human. Conditions: 48 h.
The test system of data set [3] is A427 cells. The data set is described as above. Type of data set: cell-based, human. Conditions: 48 h.
Data set [4] has as its system A431 cells. The data set is described as above. Type of data set: cell-based, human. Conditions: 48 h.
Data set [5] relates to MCF7 NucLight Green cells. As to the kind of experiment: EdU cell proliferation assay. Type of data set: cell-based, human. Conditions: for proliferating cells relative to control: 24 h incubation.
Another data set can be described thus: MTT cell viability assay. Conditions: human, cell viability (% of control). (Tetrazolium assays rely on reduction of a dye to a coloured formazan, in cell work by metabolically active cells.)
The test system of data set [6] is MCF7 cells.
The next data set in a line: in vitro. Conditions: human.
Data set [7] concerns A427 cells. As to the kind of experiment: MTT cell viability assay. Conditions: 48 h; for reduction of cell viability: 10 µM, data not shown.
Data set [8] relates to A431 cells. The experiment in a line: MTT cell viability assay. Particulars: 48 h; for reduction of cell viability: 10 µM, data not shown.
The subject of data set [9] is MCF7 cells. As to the kind of experiment: MTT cell viability assay. Particulars: 100 µM, 48 h.
Data set [10] deals with MCF7 cells. Details: method as in PMID 30965682. Particulars: other human CK2 inhibitor, compared with MCF7 value; cited from earlier work.
Setting [11] is: 10 µM compound, relative to DMSO control, read-out: % Inhibition at 10 µM.
[12] abbreviates: read-out: % Inhibition at 10 µM.
[13] abbreviates: nine concentrations 0.001-100 µM, mean ± SD, three independent experiments, read-out: IC50.

Like-named read-outs stand apart in the source and are kept apart here.

human recombinant CK2 holoenzyme, sequence (P68400 whole entry): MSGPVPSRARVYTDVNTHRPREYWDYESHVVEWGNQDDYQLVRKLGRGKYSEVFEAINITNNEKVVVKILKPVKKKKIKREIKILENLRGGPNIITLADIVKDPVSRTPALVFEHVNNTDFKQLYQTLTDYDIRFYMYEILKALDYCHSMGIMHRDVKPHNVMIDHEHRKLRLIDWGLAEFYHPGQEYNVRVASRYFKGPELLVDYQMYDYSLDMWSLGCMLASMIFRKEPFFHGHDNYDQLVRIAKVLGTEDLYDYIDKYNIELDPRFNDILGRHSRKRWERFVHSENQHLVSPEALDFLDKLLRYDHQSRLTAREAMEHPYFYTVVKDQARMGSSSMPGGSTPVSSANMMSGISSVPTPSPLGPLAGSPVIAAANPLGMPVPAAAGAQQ
human recombinant CK2 holoenzyme, sequence (P67870 whole entry partner): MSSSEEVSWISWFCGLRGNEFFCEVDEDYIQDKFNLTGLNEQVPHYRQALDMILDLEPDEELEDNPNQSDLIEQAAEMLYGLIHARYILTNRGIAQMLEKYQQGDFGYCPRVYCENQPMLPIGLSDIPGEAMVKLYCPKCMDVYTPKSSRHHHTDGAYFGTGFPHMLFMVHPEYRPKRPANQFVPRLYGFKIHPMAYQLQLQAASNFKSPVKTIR

Usually IC50 stands for the point on the concentration scale where inhibition reaches its midpoint. As a reminder, the Ki is a measure of affinity in units of concentration, obtained from inhibition or displacement. A word on the viability: it is a read-out of living cells in per cent, often relative to untreated cells. As for `CC(=O)OC1CC2(C)C(CCC(C)C23Cc2c(O)cc(C=O)c(C=O)c2O3)C(C)(C)C1OC(C)=O` (centres unmarked) [Acetoxystachybotrydial acetate], the IC50 in data set [1] was 1860 nM. Moreover, in data set [1], the Ki was determined as 1410 nM. Moreover, in data set [1], the mode of inhibition result is on record as “ATP competitive mode of inhibition”. On LDH-5 from rabbit muscle, the “inhibition of LDH” value is on record as “no inhibition”. The figures for the “cell growth (confluence)” value (in data set [2] (1 µM); with A427 cells [3] (1 µM); in the data set with A431 cells [4] (1 µM)) were “completely blocked”, “strongly impaired” and “completely blocked”, respectively. The “total number of cells (phase contrast images)” value in data set [2] (1 µM, compared with 1% DMSO control) is on record as “strongly reduced”. Moreover, the “proliferating cells relative to control” value in data set [5] (1 µM) is recorded as “Less than 1%”. Further, in data set [5] (Homo sapiens, MCF7, 24 h, read-out: EC50 inhibition of cell proliferation), the EC50 amounted to 390 nM. Moreover, the viability at 48 h, 1 µM in the data set “MTT cell viability assay” (1 µM) came out at 14%. Also, the viability at 48 h, 100 µM in “MTT cell viability assay” (100 µM) is 12%.

In general, inhibition refers to how much of the control response was suppressed. Regarding `C[C@@H]1CC[C@H]2C(C)(C)[C@H](O)CC[C@]2(C)[C@@]12Cc1c(O)cc(CO)c(C=O)c1O2` [L-671], the inhibition at 10 µM in [1] (setting [11]) was 42%.

With `CC(=O)O[C@@H]1[C@H](OC(C)=O)C[C@@]2(C)[C@@H](CC[C@@H](C)[C@]23Cc2c(O)cc(CO)c(C=O)c2O3)C1(C)C` [Stachybonoid D], the inhibition at 10 µM in data set [1] (setting [11]) was 47%.

Consider `C[C@@H]1CC[C@H]2C(C)(C)[C@H](O)CC[C@]2(C)[C@@]12Cc1c(O)cc3c(c1O2)CN(CCO)C3=O` [Stachybotryamide], for which, in data set [1] (setting [12]), the inhibition at 10 µM turned out to be 21%.

On to `CC(C)=CCC/C(C)=C/CC[C@@]1(C)C=Cc2c(O)cc(C)c(C=O)c2O1` [Stachybotrychromene A], for which, in [1] (setting [12]), the inhibition at 10 µM came out at 26%.

As to `CC(=O)Oc1cc(O)c2c(c1C=O)O[C@@](C)(CC/C=C(\C)CCC=C(C)C)C=C2` [Stachybotrychromene B], the inhibition at 10 µM in data set [1] (setting [12]) amounted to 47%.

In the case of `CC(C)=CCCC(C)=CCCC1(C)C=Cc2c(O)cc(C=O)c(C=O)c2O1` (centres unmarked) [Stachybotrychromene C], in [1] (setting [13]), the IC50 was 320 nM. Also, the “cell growth (confluence)” value is listed as “no inhibition of growth” in data set [2] (1 µM); “reduce the growth” in [2] (100 µM); “no inhibition of growth” with A427 cells [3] (1 µM); “no other cell line was affected” in the data set on A427 cells [3] (100 µM); “no inhibition of growth” in the data set on A431 cells [4] (1 µM); “no other cell line was affected” with A431 cells [4] (100 µM). For the same compound, the “proliferating cells relative to control” value in data set [5] (100 µM) is listed as “negligible effects”. Further, in the data set with MCF7 cells [6] (100 µM), the “cell viability (% of control)” value was “not decreased”. In addition, the viability at 48 h, 1 µM in “in vitro” was 155%. The “reduction of cell viability (by %)” value in the data set on A427 cells [7] (1 µM) is 32%; in the data set on A431 cells [8] (1 µM), 27%. Further, the “reduction of cell viability” value with A427 cells [7] and with A431 cells [8] was “Almost no further reduction” each time. In addition, the “increase of inhibitory effect on cell viability compared with 1 µM” value in the data set on A427 cells [7] (100 µM) and in the data set on A431 cells [8] (100 µM) was around 10% each time.

In the case of `CC(=O)OC1CCC2(C)C(CCC(C)C23Cc2c(O)cc(C=O)c(C=O)c2O3)C1(C)C` (centres unmarked) [Stachybotrydial acetate], the concentration for half-maximal inhibition (IC50) in data set [1] (setting [13]) stood at 690 nM. In addition, the “cell growth (confluence)” value was “no effect” in data set [2] (1 µM); “completely blocked” in data set [2] (100 µM); “no effect” in the data set with A427 cells [3] (1 µM); “completely blocked” in the data set on A427 cells [3] (100 µM); “no effect” in the data set on A431 cells [4] (1 µM); “completely blocked” in the data set on A431 cells [4] (100 µM). Further, the “cell viability (% of control)” value in the data set on MCF7 cells [6] (1 µM) is reported as “increased”. Moreover, the “reduction of cell viability (by %)” value is reported as 86% in the data set on MCF7 cells [9], 82% with A427 cells [7] (100 µM) and 93% in the data set on A431 cells [8] (100 µM). Besides, the “reduction of cell viability” value with A427 cells [7] and in the data set on A431 cells [8] was “not significant” throughout.

With `C[C@@H]1CC[C@H]2C(C)(C)[C@H](O)CC[C@]2(C)[C@@]12Cc1c(O)cc(C=O)c(C=O)c1O2` [Stachybotrydial], the IC50 in data set [1] (setting [13]) is 4430 nM.

As for `CC(=O)O[C@@H]1CC[C@@]2(C)[C@@H](CC[C@@H](C)[C@]23Cc2c(O)cc4c(c2O3)CNC4=O)C1(C)C` [Stachybotrylactam acetate], the inhibition at 10 µM in data set [1] (setting [12]) is 44%.

What is called % Inhibition is the percentage by which the read-out fell short of the control. Take `CC(=O)O[C@@H]1CC[C@@]2(C)[C@@H](CC[C@@H](C)[C@]23Cc2c(O)cc(CO)c(C=O)c2O3)C1(C)C` [Stachybotrysin B]: the “% Inhibition at 10 µM” value in data set [1] was determined as 50%. Besides, in [1] (setting [13]), the IC50 turned out to be 13400 nM. Also, the inhibition at 10 µM in [1] (read-out: % Inhibition at 10 µM, 10 µM compound, relative to DMSO control) was above 50%.

In the case of `CC(=O)O[C@@H]1[C@H](O)C[C@@]2(C)[C@@H](CC[C@@H](C)[C@]23Cc2c(O)cc(CO)c(C=O)c2O3)C1(C)C` [Stachybotrysin C], in [1] (setting [12]), the inhibition at 10 µM is 37%.

Regarding `COC1=CC(=O)c2c(c(O)c3oc4cc(OC)cc(C)c4c(=O)c3c2O)C1=O` [bikaverin], in the data set with MCF7 cells [10], the EC50 was 1970 nM.

For `Cc1cc(O)c2c(c1)C(=O)c1cc(O)cc(O)c1C2=O` [emodin, reference compound], the “proliferating cells relative to control” value is “no effect” in data set [5] (1 µM), 77% in data set [5] (10 µM) and 5% in [5] (100 µM).
